Biological target: mPGES-1 (Homo sapiens (Human), UniProt O14684)
Assay: A549 cell-based assay (PGE2 formation, IL-1β stimulated, 50% human serum)
Settings: A549 cells, IL-1β 5 ng/ml, read-out: mPGES-1 inhibitory effect in the cell assay, IC50
Description: Although the enzymatic assay is a high throughput assay the disadvantage is that it uses a recombinant protein which is not in its natural environment. Accordingly a cellular assay was established in which a cell line of human origin (A549) expressing the mPGES-1 protein was used. In addition in order to mimic the situation in humans in which compounds can be bound to plasma proteins 50% human serum is added in the assay.
Cells were detached using Trypsin-EDTA. A549 cells were seeded in a 384-well collagene plate at a density of 7000 cells/well (50 μl) in F-12 medium containing 1% Penicillin-Streptomycin and 50% human serum. The cells were allowed to attach for 3-4 h. […] The total volume is 100 μl.
Concentrations of PGE2 in the cell free medium (10 μl) were measured using a commercially available HTRF kit from Cisbio (as described above). The PGE2 formation in the absence of test compound was taken as 100%.
IC50 values were derived from at 6-8 point titrations using conventional software.

Sequence of mPGES-1 (O14684 whole entry): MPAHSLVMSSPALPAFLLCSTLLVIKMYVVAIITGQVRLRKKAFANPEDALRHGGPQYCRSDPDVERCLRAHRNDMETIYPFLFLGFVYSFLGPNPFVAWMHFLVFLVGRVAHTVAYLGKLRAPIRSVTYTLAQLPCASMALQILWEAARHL

| IC50 [nM] | SMILES |
| --- | --- |
| < 1 | Cn1c(Nc2c(Cl)ccc(CNC(=O)C3(C)CCCO3)c2Cl)nc2cc(C(=O)Nc3ccc(F)c(Cl)c3)c(OCC(F)F)cc21 (stereo not shown) [Example 170] |
| < 1 | Cn1c(Nc2c(Cl)ccc(CNC(=O)C3(C(F)(F)F)CCCC3)c2Cl)nc2cc(C(=O)Nc3ccc(F)c(Cl)c3)c(OCC(F)F)cc21 [Example 165] |
| 2 | CCC(=O)NCc1ccc(Cl)c(Nc2nc3cc(C(=O)Nc4ccc(F)c(Cl)c4)c(OCC(F)F)cc3n2C)c1Cl [Example 146] |
| 66 | Cn1c(Nc2c(Cl)ccc(CNC(=O)C3(O)CC3)c2Cl)nc2cc(C(=O)NCC(F)(F)F)c(OCC(F)F)cc21 [Example 93] |
| 68 | Cn1c(Nc2c(Cl)ccc(CNC(=O)CC3CC3)c2Cl)nc2cc(C(=O)NCC(F)(F)F)c(OCC(F)F)cc21 [Example 88] |
| 2.5 | Cn1cccc1C(=O)NCc1ccc(Cl)c(Nc2nc3cc(C(=O)Nc4ccc(F)c(Cl)c4)c(OCC(F)F)cc3n2C)c1Cl [Example 142] |
| 221 | Cn1c(Nc2c(Cl)ccc(CNC(=O)C(N)C(F)(F)F)c2Cl)nc2cc(C(=O)NCC(F)(F)F)c(OCC(F)F)cc21 (stereo not shown) [Example 87] |
| < 1 | Cn1c(Nc2c(Cl)ccc(CNC(=O)C(C)(C)C(F)(F)F)c2Cl)nc2cc(C(=O)Nc3ccc(F)c(Cl)c3)c(OCC(F)F)cc21 [Example 176] |
| 59 | Cn1c(Nc2c(Cl)ccc(CNC(=O)C(C)(C)O)c2Cl)nc2cc(C(=O)NCC(F)(F)F)c(OCC(F)F)cc21 [Example 108] |
| 4 | Cn1c(Nc2c(Cl)ccc(CNC(=O)C3CCCO3)c2Cl)nc2cc(C(=O)Nc3ccc(F)c(Cl)c3)c(OCC(F)F)cc21 (stereo not shown) [Example 137] |
| 10 | Cn1ccnc1C(=O)NCc1ccc(Cl)c(Nc2nc3cc(C(=O)Nc4ccc(F)c(Cl)c4)c(OCC(F)F)cc3n2C)c1Cl [Example 156] |
| 17 | Cn1c(Nc2c(Cl)ccc(CNC(=O)c3cc(C(F)(F)F)n[nH]3)c2Cl)nc2cc(C(=O)Nc3ccc(F)c(Cl)c3)c(OCC(F)F)cc21 [Example 136] |
| 1 | Cn1c(Nc2c(Cl)ccc(CNC(=O)C3(C)COC3)c2Cl)nc2cc(C(=O)Nc3ccc(F)c(Cl)c3)c(OCC(F)F)cc21 [Example 150] |
| 1 | Cn1c(Nc2c(Cl)ccc(CNC(=O)C(C)(C)C)c2Cl)nc2cc(C(=O)Nc3ccc(Br)cc3)c(F)cc21 [Example 7] |
| 3 | COC(C)(C)C(=O)NCc1ccc(Cl)c(Nc2nc3cc(C(=O)NCC(F)(F)F)c(OCC(F)F)cc3n2C)c1Cl [Example 130] |
| 2 | Cn1c(Nc2c(Cl)ccc(CNC(=O)C(C)(C)CO)c2Cl)nc2cc(C(=O)Nc3ccc(F)c(Cl)c3)c(OCC(F)F)cc21 [Example 155] |
| 19 | Cn1c(Nc2c(Cl)ccc(CNC(=O)CC#N)c2Cl)nc2cc(C(=O)NCC(F)(F)F)c(OCC(F)F)cc21 [Example 112] |

| IC50 [nM] | SMILES |
| --- | --- |
| < 1 | Cn1c(Nc2c(Cl)ccc(CNC(=O)c3c(F)cccc3Cl)c2Cl)nc2cc(C(=O)Nc3ccc(F)c(Cl)c3)c(OCC(F)F)cc21 [Example 158] |
| 300 | CC(=O)NCc1ccc(Cl)c(Nc2nc3cc(C(=O)NCC(F)(F)F)c(OCC(F)F)cc3n2C)c1Cl [Example 115] |
| 1 | Cn1c(Nc2c(Cl)ccc(CNC(=O)CC(F)(F)F)c2Cl)nc2cc(C(=O)Nc3ccc(F)c(Cl)c3)c(OCC(F)F)cc21 [Example 131] |
| 13 | Cn1c(Nc2c(Cl)ccc(CNC(=O)C(C)(F)F)c2Cl)nc2cc(C(=O)NCC(F)(F)F)c(OCC(F)F)cc21 [Example 95] |
| 49 | Cc1nc(C)c(C(=O)NCc2ccc(Cl)c(Nc3nc4cc(C(=O)Nc5ccc(F)c(Cl)c5)c(OCC(F)F)cc4n3C)c2Cl)s1 [Example 138] |
| < 1 | Cn1c(Nc2c(Cl)ccc(CNC(=O)C3CCCC3)c2Cl)nc2cc(C(=O)Nc3ccc(F)c(Cl)c3)c(OCC(F)F)cc21 [Example 160] |
| 18 | Cn1c(Nc2c(Cl)ccc(CNC(=O)C3(C)CC3)c2Cl)nc2cc(C(=O)NCC(F)(F)F)c(OCC(F)F)cc21 [Example 103] |
| 7 | Cn1c(Nc2c(Cl)ccc(CNC(=O)c3ccno3)c2Cl)nc2cc(C(=O)Nc3ccc(F)c(Cl)c3)c(OCC(F)F)cc21 [Example 166] |
| 10 | Cn1c(Nc2c(Cl)ccc(CNC(=O)C3CCC3)c2Cl)nc2cc(C(=O)NCC(F)(F)F)c(OCC(F)F)cc21 [Example 91] |
| 52 | Cn1c(Nc2c(Cl)ccc(CNC(=O)C3CC3)c2Cl)nc2cc(C(=O)NCC(F)(F)F)c(OCC(F)F)cc21 [Example 100] |
| 26 | Cn1c(Nc2c(Cl)ccc(CNC(=O)CC(F)(F)F)c2Cl)nc2cc(C(=O)NCC(F)(F)F)c(OCC(F)F)cc21 [Example 128] |
| < 1 | Cn1c(Nc2c(Cl)ccc(CNC(=O)C(C)(F)F)c2Cl)nc2cc(C(=O)Nc3ccc(F)c(Cl)c3)c(OCC(F)F)cc21 [Example 162] |
| 14 | Cn1c(Nc2c(Cl)ccc(CNC(=O)C(O)C(F)(F)F)c2Cl)nc2cc(C(=O)NCC(F)(F)F)c(OCC(F)F)cc21 (stereo not shown) [Example 96] |
| < 1 | Cn1c(Nc2c(Cl)ccc(CNC(=O)C(C)(C)F)c2Cl)nc2cc(C(=O)Nc3ccc(F)c(Cl)c3)c(OCC(F)F)cc21 [Example 84, N-(3-Chloro-4-fluoro-phenyl)-2-{2,6-dichloro-3-[(2-fluoro-2-methyl-propionylamino)-methyl]-phenylamino}-6-(2,2-difluoroethoxy)-1-methyl-1H-benzimidazole-5-carboxylic acid amide] |
| 9 | Cn1c(Nc2c(Cl)ccc(CNC(=O)c3ccc(Cl)s3)c2Cl)nc2cc(C(=O)NCC(F)(F)F)c(OCC(F)F)cc21 [Example 92] |
| < 1 | Cn1c(Nc2c(Cl)ccc(CNC(=O)c3sccc3Cl)c2Cl)nc2cc(C(=O)Nc3ccc(F)c(Cl)c3)c(OCC(F)F)cc21 [Example 168] |

More lines, now with the values behind:

| SMILES | IC50 [nM] |
| --- | --- |
| Cn1c(Nc2c(Cl)ccc(CNC(=O)C(C)(N)C(F)(F)F)c2Cl)nc2cc(C(=O)Nc3ccc(F)c(Cl)c3)c(OCC(F)F)cc21 (stereo not shown) [Example 152] | < 1 |
| Cn1c(Nc2c(Cl)ccc(CNC(=O)C3CC(F)(F)C3)c2Cl)nc2cc(C(=O)Nc3ccc(F)c(Cl)c3)c(OCC(F)F)cc21 [Example 167] | 6 |
| Cn1c(Nc2c(Cl)ccc(CNC(=O)C3CCCO3)c2Cl)nc2cc(C(=O)NCC(F)(F)F)c(OCC(F)F)cc21 (stereo not shown) [Example 90] | 36 |
| CC(O)C(=O)NCc1ccc(Cl)c(Nc2nc3cc(C(=O)Nc4ccc(F)c(Cl)c4)c(OCC(F)F)cc3n2C)c1Cl (stereo not shown) [Example 147] | 4 |
| CC(C)C(=O)NCc1ccc(Cl)c(Nc2nc3cc(C(=O)Nc4ccc(F)c(Cl)c4)c(OCC(F)F)cc3n2C)c1Cl [Example 151] | 1 |
| C[C@H](O)C(=O)NCc1ccc(Cl)c(Nc2nc3cc(C(=O)NCC(F)(F)F)c(OCC(F)F)cc3n2C)c1Cl [Example 109] | 57 |
| Cn1c(Nc2c(Cl)ccc(CNC(=O)C3(C#N)CC3)c2Cl)nc2cc(C(=O)Nc3ccc(F)c(Cl)c3)c(OCC(F)F)cc21 [Example 145] | 7 |
| Cn1c(Nc2c(Cl)ccc(CNC(=O)C3(C(F)(F)F)CC3)c2Cl)nc2cc(C(=O)Nc3ccc(F)c(Cl)c3)c(OCC(F)F)cc21 [Example 174] | < 1 |
| CC(C)C(=O)NCc1ccc(Cl)c(Nc2nc3cc(C(=O)NCC(F)(F)F)c(OCC(F)F)cc3n2C)c1Cl [Example 110] | 8 |
| CCCC(=O)NCc1ccc(Cl)c(Nc2nc3cc(C(=O)Nc4ccc(F)c(Cl)c4)c(OCC(F)F)cc3n2C)c1Cl [Example 132] | 2 |
| Cn1c(Nc2c(Cl)ccc(CNC(=O)C3CC3(F)F)c2Cl)nc2cc(C(=O)Nc3ccc(F)c(Cl)c3)c(OCC(F)F)cc21 (stereo not shown) [Example 153] | 3 |
| COCC(=O)NCc1ccc(Cl)c(Nc2nc3cc(C(=O)NCC(F)(F)F)c(OCC(F)F)cc3n2C)c1Cl [Example 101] | 11 |
| Cn1c(Nc2c(Cl)ccc(CNC(=O)C(C)(C)C)c2Cl)nc2cc(C(=O)Nc3ccc(F)c(Cl)c3)c(OCCF)cc21 [Example 177, N-(3-Chloro-4-fluoro-phenyl)-2-{2,6-dichloro-3-[(2,2-dimethyl-propionylamino)-methyl]-phenylamino}-6-(2-fluoroethoxy)-1-methyl-1H-benzimidazole-5-carboxylic acid amide] | < 1 |
| CC(C)(C)C(=O)NCc1ccc(Cl)c(Nc2nc3cc(OC(F)F)c(C(=O)N[C@H]4CC[C@H](C(F)(F)F)CC4)cc3[nH]2)c1Cl [Example 78] | 8 |
| CC(C(=O)NCc1ccc(Cl)c(Nc2nc3cc(C(=O)Nc4ccc(F)c(Cl)c4)c(OCC(F)F)cc3n2C)c1Cl)C(F)(F)F (stereo not shown) [Example 141] | < 1 |
| Cn1c(Nc2c(Cl)ccc(CNC(=O)C(C)(O)C(F)(F)F)c2Cl)nc2cc(C(=O)Nc3ccc(F)c(Cl)c3)c(OCC(F)F)cc21 (stereo not shown) [Example 149] | 1 |
| Cn1c(Nc2c(Cl)ccc(CNC(=O)CC#N)c2Cl)nc2cc(C(=O)Nc3ccc(F)c(Cl)c3)c(OCC(F)F)cc21 [Example 154] | 36 |
| COC(C)(C)C(=O)NCc1ccc(Cl)c(Nc2nc3cc(C(=O)Nc4ccc(F)c(Cl)c4)c(OCC(F)F)cc3n2C)c1Cl [Example 135] | < 1 |
| Cn1c(Nc2c(Cl)ccc(CNC(=O)C(F)F)c2Cl)nc2cc(C(=O)Nc3ccc(F)c(Cl)c3)c(OCC(F)F)cc21 [Example 159] | 1 |
| Cn1c(Nc2c(Cl)ccc(CNC(=O)C(N)C(F)(F)F)c2Cl)nc2cc(C(=O)Nc3ccc(F)c(Cl)c3)c(OCC(F)F)cc21 (stereo not shown) [Example 164] | 15 |
| Cn1c(Nc2c(Cl)ccc(CNC(=O)C(O)C(F)(F)F)c2Cl)nc2cc(C(=O)Nc3ccc(F)c(Cl)c3)c(OCC(F)F)cc21 (stereo not shown) [Example 161] | 2 |
| Cn1c(Nc2c(Cl)ccc(CNC(=O)C(C)(C)C)c2Cl)nc2cc(C(=O)Nc3cccc(C#N)c3)c(OCC(F)F)cc21 [Example 28] | 1 |

From patent US8759537B2, “3H-imidazo [4, 5-C] pyridine-6-carboxamides as anti-inflammatory agents” (Boehringer Ingelheim International GmbH, priority 2010, dated 2014)
